Activity calls are given as the source filed them.
Assays:
[1] = growth suppression of PTEN-null colon cells, dose response, cell-based, HCT116 PTEN knockout (AID 1047); assay type: functional;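 note: HCT116 colon tumor cells with PTEN knocked out; cells exposed to compound for 60 hours before readout; potency for loss of cell viability measured by luminescence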
[2] = system: INS1; experiment: beta cell apoptosis inhibitors, cytokine rescue, dose response, luminescence, retest (AID 449756); assay type: functional, cell-based; conditions: Rattus norvegicus;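 note: cell death triggered by IL-1 beta plus TNF-alpha plus IFN-gamma mixture; protective hits raise ATP signal compared with cytokine alone wells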
[3] = molecular target: T1, Mannose-6-phosphate isomerase (Homo sapiens, UniProt P34949); experiment: human PMI inhibitors, high substrate, primary screen, biochemical, fluorescence intensity, high mannose 6-phosphate (AID 1220)
T1 sequence (P34949 whole entry): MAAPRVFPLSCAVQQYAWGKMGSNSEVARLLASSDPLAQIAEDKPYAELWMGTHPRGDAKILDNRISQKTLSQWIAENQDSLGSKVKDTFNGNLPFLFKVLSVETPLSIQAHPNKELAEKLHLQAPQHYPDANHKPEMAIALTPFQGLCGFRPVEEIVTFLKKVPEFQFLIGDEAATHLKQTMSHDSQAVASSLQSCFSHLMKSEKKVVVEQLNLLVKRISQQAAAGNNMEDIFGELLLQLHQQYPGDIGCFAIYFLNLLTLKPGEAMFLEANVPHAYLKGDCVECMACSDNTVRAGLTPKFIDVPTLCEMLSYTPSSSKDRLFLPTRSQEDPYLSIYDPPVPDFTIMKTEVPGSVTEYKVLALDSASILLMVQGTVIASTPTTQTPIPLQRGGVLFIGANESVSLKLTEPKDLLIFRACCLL

[4] = molecular target: T2, Serine/threonine-protein phosphatase (Candida dubliniensis (strain CD36 / CBS 7987 / NCPF 3949 / NRRLY-17841) (Yeast), UniProt B9W6M3); experiment: calcineurin pathway inhibitors in yeast reporter, dose response, S. cerevisiae, CDRE-lacZ, luminescence, secondary (AID 2388); assay type: functional, cell-based;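 note: yeast reporter cells carrying a calcineurin-responsive lacZ construct stimulated with calcium chloride; luminescent beta-galactosidase reporter signal in whole cells rather than isolated phosphatase activity; potency for inhibition where a drop in reporter signal means calcineurin blockade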
T2 sequence (B9W6M3 whole entry): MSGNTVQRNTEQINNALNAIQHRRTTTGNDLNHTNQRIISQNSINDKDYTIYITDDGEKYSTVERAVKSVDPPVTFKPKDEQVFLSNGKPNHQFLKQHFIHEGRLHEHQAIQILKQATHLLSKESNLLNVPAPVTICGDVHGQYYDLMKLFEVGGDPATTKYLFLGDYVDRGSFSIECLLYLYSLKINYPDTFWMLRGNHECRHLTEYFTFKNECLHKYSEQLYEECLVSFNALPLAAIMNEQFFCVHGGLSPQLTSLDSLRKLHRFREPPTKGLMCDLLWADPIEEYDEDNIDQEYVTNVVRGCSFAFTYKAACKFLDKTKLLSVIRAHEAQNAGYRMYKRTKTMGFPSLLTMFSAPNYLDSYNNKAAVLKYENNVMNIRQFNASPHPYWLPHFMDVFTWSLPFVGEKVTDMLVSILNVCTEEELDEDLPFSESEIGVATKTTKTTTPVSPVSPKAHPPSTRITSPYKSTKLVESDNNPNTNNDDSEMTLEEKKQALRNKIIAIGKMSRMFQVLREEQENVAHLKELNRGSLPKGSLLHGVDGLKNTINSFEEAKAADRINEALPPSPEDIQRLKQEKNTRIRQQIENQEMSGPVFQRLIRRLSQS

[5] = growth suppression of beta-catenin-knockout colon cells, dose response, cell-based, HCT116, human colon tumor (AID 1045); assay type: functional;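 note: HCT116 colon tumor cells with beta catenin knocked out; cells exposed to compound for 60 hours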
[6] = molecular target: Peroxisome proliferator-activated receptor gamma/Nuclear receptor coactivator 3 (Homo sapiens, UniProt P37231); experiment: (§1) TR-FRET dose response biochemical High Throughput Screening assay for agonists of the steroid receptor coactivator 3 (SRC-3) recruitment by the peroxisome proliferator-activated receptor gamma (PPAR gamma): non-selective agonists. [Related pubchem assays: 1301 (Confirmation screen.), 1048 (Primary screen.)]; assay type: functional
[7] = system: Vero; experiment: Vero cell cytotoxicity, cytotoxicity control for flavivirus capping enzyme inhibitors (AID 588742); assay type: functional; conditions: Chlorocebus sabaeus
[8] = molecular target: T3, Protein RecA (Mycobacterium tuberculosis, UniProt P9WHJ3); experiment: Fluorescence Cell-Free Homogeneous Dose Retest to Identify Inhibitors of RecA-Intein Splicing Activity. [Related pubchem assays (depositor defined):AID2097, AID2223, AID489010, AID492950]; assay type: functional
T3 sequence (P9WHJ3 whole entry): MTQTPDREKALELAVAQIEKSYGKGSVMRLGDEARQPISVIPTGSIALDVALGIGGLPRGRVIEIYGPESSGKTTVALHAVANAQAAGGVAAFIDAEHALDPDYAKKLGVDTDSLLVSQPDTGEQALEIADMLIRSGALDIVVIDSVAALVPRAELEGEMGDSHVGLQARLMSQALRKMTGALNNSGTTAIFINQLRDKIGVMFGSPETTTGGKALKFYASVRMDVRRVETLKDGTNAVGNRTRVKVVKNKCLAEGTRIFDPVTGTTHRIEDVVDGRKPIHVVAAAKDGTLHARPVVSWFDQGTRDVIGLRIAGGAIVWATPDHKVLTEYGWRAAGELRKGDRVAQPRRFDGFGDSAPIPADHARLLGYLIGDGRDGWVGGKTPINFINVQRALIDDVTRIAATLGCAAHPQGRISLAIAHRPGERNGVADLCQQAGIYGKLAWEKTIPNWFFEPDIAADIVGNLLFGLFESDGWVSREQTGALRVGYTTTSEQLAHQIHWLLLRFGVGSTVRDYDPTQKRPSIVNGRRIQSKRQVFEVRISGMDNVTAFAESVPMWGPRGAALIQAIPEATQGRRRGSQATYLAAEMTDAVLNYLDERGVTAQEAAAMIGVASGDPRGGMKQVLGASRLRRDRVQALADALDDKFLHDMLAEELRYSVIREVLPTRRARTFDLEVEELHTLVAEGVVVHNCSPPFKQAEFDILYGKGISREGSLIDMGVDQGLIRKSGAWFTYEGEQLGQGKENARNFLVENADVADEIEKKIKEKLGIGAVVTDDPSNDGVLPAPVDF

[9] = molecular target: ATP-dependent molecular chaperone HSP82 (Candida albicans (strain WO-1) (Yeast), UniProt C4YTQ8); experiment: loss of DOC-induced GRE-beta-galactosidase reporter signal, dose response, Hsp90 inhibitor project, S. cerevisiae, luminescence (AID 2400); assay type: functional, cell-based;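 note: beta-galactosidase luminescence from glucocorticoid response element reporter as proxy for Hsp90 function; inhibitor potency where signal loss means Hsp90 inhibition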
ATP-dependent molecular chaperone HSP82, sequence (C4YTQ8 whole entry): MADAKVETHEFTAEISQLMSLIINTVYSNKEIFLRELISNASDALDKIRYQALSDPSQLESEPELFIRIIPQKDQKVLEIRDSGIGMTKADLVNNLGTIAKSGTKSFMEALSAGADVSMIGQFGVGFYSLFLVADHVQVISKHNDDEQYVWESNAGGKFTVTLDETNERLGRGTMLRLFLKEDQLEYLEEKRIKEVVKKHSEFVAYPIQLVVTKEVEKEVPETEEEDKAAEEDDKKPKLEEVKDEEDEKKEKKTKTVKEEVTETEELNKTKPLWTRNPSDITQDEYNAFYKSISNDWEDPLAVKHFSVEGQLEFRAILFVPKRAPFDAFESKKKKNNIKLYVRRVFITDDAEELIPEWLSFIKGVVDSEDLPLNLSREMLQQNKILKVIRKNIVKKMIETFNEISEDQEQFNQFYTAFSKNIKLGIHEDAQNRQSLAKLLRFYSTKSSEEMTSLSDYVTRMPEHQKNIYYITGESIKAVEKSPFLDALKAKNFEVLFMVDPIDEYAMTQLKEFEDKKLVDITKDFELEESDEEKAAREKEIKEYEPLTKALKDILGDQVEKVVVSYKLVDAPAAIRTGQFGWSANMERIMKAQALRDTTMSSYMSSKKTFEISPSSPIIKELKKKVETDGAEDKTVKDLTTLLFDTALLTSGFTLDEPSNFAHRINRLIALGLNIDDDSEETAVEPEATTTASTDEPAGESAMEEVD

[10] = molecular target: T4, Replicative DNA helicase DnaB (Mycobacterium tuberculosis, UniProt P9WMR3); experiment: DnaB intein splicing inhibitors, dose response, biochemical, cell-free fluorescence (AID 449749); assay type: functional
T4 sequence (P9WMR3 whole entry): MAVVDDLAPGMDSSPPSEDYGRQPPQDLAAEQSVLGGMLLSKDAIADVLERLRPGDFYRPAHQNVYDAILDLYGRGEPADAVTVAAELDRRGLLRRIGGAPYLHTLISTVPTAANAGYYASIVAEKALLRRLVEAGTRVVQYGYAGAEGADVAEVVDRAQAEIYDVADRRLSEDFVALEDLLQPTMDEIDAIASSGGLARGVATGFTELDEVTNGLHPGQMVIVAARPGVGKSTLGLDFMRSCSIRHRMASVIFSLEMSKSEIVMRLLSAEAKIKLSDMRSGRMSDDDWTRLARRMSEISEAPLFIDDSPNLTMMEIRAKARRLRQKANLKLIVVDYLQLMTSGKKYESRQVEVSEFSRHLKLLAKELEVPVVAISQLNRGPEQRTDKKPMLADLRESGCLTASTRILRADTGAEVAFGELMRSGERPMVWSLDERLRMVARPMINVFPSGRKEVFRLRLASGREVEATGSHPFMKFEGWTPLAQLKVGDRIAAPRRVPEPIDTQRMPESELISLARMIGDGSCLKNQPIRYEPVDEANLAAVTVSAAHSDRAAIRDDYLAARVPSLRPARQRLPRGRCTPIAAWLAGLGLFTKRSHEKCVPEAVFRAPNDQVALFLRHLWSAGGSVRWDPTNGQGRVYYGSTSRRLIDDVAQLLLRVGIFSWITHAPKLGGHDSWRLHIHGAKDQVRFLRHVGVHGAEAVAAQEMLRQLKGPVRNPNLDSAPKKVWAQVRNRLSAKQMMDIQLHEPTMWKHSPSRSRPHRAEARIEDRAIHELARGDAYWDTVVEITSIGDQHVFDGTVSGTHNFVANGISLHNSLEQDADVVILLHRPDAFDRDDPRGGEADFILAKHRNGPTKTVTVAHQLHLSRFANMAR

[11] = C. albicans growth with fluconazole, confirmation, fluorescence, retest (AID 2467); assay type: functional, cell-based
[12] = molecular target: Peroxisome proliferator-activated receptor gamma/Nuclear receptor coactivator 1 (Homo sapiens, UniProt P37231); experiment: as §1, with “1 (SRC-1)” for “3 (SRC-3)”, “assays (depositor defined):AID1300, AID1808, AID504735, AID631]” for “assays: 1301 (Confirmation screen.), 1048 (Primary screen.)]”; assay type: protein assay
[13] = molecular target: Peroxisome proliferator-activated receptor gamma/Nuclear receptor coactivator 2 (Homo sapiens, UniProt P37231); experiment: TR-FRET dose response biochemical High Throughput Screening assay for agonists of the steroid receptor coactivator 2 (SRC-2) recruitment by the peroxisome proliferator-activated receptor gamma (PPAR gamma): non-selective agonists. [Related pubchem assays: 1297, 1032 ]; assay type: functional
Peroxisome proliferator-activated receptor gamma/Nuclear receptor coactivator 2, sequence (P37231 whole entry): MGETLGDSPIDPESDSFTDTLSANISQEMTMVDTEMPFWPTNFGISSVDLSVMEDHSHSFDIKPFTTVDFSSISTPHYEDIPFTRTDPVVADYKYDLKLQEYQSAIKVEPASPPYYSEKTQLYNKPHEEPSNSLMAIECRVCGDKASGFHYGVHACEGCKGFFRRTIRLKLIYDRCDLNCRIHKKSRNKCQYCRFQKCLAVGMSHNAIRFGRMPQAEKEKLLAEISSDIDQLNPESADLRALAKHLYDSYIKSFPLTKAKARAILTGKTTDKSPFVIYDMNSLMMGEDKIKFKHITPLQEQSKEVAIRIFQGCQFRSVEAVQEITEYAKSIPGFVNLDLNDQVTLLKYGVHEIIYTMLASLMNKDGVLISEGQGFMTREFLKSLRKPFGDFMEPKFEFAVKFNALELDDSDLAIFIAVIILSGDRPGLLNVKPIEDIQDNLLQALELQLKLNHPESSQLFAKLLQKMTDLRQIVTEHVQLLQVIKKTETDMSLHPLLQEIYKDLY
Peroxisome proliferator-activated receptor gamma/Nuclear receptor coactivator 2, sequence (Q15596 whole entry, further chain): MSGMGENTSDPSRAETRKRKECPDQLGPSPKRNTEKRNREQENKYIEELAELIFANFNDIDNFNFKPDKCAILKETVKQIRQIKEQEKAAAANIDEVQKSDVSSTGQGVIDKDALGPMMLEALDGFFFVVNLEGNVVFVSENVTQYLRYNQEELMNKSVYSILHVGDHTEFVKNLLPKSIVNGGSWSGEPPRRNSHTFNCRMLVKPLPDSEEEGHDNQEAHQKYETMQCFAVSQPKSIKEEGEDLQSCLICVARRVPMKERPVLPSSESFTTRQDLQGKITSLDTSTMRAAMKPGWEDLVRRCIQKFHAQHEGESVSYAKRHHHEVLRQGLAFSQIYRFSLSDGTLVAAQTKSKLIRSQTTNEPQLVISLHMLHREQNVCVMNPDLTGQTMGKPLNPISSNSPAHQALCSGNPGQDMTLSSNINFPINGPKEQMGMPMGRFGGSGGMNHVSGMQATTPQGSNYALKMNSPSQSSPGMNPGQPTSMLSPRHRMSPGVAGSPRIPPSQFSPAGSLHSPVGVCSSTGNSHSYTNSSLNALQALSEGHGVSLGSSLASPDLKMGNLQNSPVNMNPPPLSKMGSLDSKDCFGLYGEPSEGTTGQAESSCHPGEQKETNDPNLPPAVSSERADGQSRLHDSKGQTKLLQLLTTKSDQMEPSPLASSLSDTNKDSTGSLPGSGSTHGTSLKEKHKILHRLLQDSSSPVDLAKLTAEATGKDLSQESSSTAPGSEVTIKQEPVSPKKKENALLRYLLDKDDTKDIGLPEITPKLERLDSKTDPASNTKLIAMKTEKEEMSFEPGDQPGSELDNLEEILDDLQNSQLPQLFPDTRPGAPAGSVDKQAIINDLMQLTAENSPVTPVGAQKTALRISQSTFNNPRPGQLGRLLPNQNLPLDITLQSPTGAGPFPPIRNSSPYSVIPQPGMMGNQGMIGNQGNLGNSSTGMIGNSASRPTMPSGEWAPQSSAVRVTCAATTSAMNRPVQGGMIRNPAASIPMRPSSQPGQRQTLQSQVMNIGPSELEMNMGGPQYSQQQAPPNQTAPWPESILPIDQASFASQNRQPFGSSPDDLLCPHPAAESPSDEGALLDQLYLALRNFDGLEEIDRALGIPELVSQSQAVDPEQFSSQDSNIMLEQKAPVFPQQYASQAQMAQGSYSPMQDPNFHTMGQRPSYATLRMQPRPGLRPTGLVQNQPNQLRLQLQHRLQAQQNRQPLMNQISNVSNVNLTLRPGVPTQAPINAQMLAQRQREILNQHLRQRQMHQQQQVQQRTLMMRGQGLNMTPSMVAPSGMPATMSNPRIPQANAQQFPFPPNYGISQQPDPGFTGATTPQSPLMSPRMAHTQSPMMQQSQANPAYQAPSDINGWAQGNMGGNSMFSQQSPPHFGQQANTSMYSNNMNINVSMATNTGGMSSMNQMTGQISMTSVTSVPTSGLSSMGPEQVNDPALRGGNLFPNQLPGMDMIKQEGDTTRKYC

[14] = NIH-3T3 fibroblast cytotoxicity, dose response, cytotoxicity control, cell-based, fluorescence, Alamar Blue, secondary assay (AID 2327); assay type: functional;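 note: NIH-3T3 mouse fibroblasts cultured with fluconazole at 8 µg/mL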
[15] = Luminescent dose response cell-based high throughput screening assay for inhibitors of the Janus kinase 2 mutant JAK2V617F. [Related pubchem assays: 1446 (Primary screen.), 1521 (Confirmation assay.), 1486 (Counter screen.)]; assay type: functional
[16] = molecular target: DNA topoisomerase (Yersinia pestis, UniProt A0A2S9PM60); experiment: Y. pestis Topo-I inhibitors, cleavage product readout, dose response, biochemical, cherry-pick (AID 588525)
DNA topoisomerase, sequence (A0A2S9PM60 whole entry): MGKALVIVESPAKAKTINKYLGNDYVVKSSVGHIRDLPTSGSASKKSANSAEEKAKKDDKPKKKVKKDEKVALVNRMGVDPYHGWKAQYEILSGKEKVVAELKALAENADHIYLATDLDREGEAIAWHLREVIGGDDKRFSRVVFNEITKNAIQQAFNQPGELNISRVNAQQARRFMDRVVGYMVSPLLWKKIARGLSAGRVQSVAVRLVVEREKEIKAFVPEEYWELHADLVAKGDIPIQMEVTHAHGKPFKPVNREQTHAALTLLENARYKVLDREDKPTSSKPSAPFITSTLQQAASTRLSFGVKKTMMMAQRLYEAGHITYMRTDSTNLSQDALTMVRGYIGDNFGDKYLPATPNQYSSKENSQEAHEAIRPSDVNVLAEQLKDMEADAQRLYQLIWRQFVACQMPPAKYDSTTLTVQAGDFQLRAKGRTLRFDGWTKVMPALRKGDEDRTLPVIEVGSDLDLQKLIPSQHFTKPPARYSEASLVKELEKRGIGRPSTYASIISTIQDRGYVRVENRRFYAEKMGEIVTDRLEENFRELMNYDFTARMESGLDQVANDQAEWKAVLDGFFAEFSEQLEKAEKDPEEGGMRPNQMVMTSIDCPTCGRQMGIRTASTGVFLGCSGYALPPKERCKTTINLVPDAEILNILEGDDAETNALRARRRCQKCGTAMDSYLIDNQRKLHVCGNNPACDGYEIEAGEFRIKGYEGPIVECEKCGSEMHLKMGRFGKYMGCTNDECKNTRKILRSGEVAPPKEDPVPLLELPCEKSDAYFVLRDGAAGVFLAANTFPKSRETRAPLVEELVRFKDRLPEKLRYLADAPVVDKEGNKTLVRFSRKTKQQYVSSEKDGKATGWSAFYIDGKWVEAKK

Row | SMILES | EC50 [1] | AC50 [2] | IC50 [3] | EC50 [4] | EC50 [5] | EC50 [6] | CC50 [7] | EC50 [8] | EC50 [9] | AC50 [10] | EC50 [11] | EC50 [12] | EC50 [13] | EC50 [14] | IC50 [15] | AC50 [16]
1 | [O-][N+]1=c2ccc(Nc3ccccc3)cc2=NC12CCCCC2 | 1.9 µM (active) | 5.64 µM (active) | 48.2 µM (active) | > 180 µM (inactive) | 1.62 µM (active) | > 79.4 µM (not active) | 18.6 µM (active) | 4.37 µM (active) | > 150 µM (inactive) | > 380 µM (inactive) | 1.46 µM (active) | 14.9 µM (inactive) | 14.4 µM (not active) | 146 µM (active) | 0.637 µM (active) | –
2 | Cc1cc(OCCn2nc(C(=O)O)c3ccccc3c2=O)ccc1C(C)C | – | – | – | – | – | – | – | – | – | – | – | – | – | – | – | 3.68 µM (active)
